Results: the NIST ThermoML archive (doi:10.1021/acs.jced.8b01120)

Assay: xn = mol fraction of the nth substance listed
Settings: 100 kPa, Liquid; for speed of sound: Single path-length method; for mass density: Vibrating tube method

CCCCCOC(C)=O [pentyl ethanoate] + CCCCN(CCCC)CCCC
Settings	mass density, 293.15 K [kg/m3]	mass density, 298.15 K [kg/m3]	mass density, 303.15 K [kg/m3]	mass density, 308.15 K [kg/m3]	mass density, 313.15 K [kg/m3]	speed of sound, 293.15 K [m/s]	speed of sound, 298.15 K [m/s]	speed of sound, 303.15 K [m/s]	speed of sound, 308.15 K [m/s]	speed of sound, 313.15 K [m/s]
x2 = 0	876.248	871.32	865.782	860.581	855.357	1243	1220.7	1196.8	1174.2	1152.3
x2 = 0.0575	865.692	860.668	855.073	849.94	844.475	1244.2	1221.5	1197.8	1175.7	1153.7
x2 = 0.1106	856.436	851.526	846.117	841.075	835.813	1245.2	1222.5	1198.8	1177.2	1155.7
x2 = 0.2013	842.712	837.942	832.841	827.884	823.003	1247.7	1224.3	1201.8	1179.7	1158.8
x2 = 0.3229	827.693	823.116	818.312	813.425	808.951	1249.6	1227.8	1205.4	1184.1	1163.1
x2 = 0.4109	818.21	813.799	809.136	804.737	800.073	1251.4	1229.9	1207.8	1187.2	1167.2
x2 = 0.5032	809.565	805.278	800.772	796.389	791.981	1253.8	1232.5	1210.5	1190.4	1170
x2 = 0.6202	799.842	795.692	791.362	787.138	782.852	1255.6	1235	1214.6	1194.1	1174.1
x2 = 0.7403	791.114	787.079	782.913	778.804	774.698	1258.8	1238.5	1217.8	1198.2	1178.9
x2 = 0.8105	786.994	782.989	778.908	774.712	770.827	1259.7	1240.2	1219.9	1201	1181.2
x2 = 0.9205	780.619	776.717	772.741	768.959	764.799	1262.4	1243.1	1223	1204.5	1185.6

CCCCN(CCCC)CCCC [tributylamine] + CCCCOC(C)=O
Settings	mass density, 293.15 K [kg/m3]	mass density, 298.15 K [kg/m3]	mass density, 303.15 K [kg/m3]	mass density, 308.15 K [kg/m3]	mass density, 313.15 K [kg/m3]	speed of sound, 293.15 K [m/s]	speed of sound, 298.15 K [m/s]	speed of sound, 303.15 K [m/s]	speed of sound, 308.15 K [m/s]	speed of sound, 313.15 K [m/s]
x1 = 0.0535	870.397	865.288	860.118	854.99	849.73	1214	1193.8	1175.2	1156	1132.7
x1 = 0.11	859.603	854.617	849.591	844.604	839.544	1217.1	1196.9	1178.2	1158.9	1135.7
x1 = 0.2003	844.278	839.544	834.725	829.963	825.128	1221.8	1201.9	1183.5	1163.8	1141.7
x1 = 0.3239	827.789	823.24	818.635	814.11	809.428	1228.3	1208.9	1189.5	1170.4	1148.8
x1 = 0.4004	818.98	814.604	810.171	805.768	801.312	1232.5	1212.3	1193.6	1174.4	1153.5
x1 = 0.502	809.109	804.828	800.541	796.282	791.968	1237.7	1217.4	1199.2	1180.1	1158.9
x1 = 0.592	801.571	797.439	793.26	789.105	784.862	1242.4	1222.7	1203.4	1185.3	1164.7
x1 = 0.7201	792.16	788.147	784.362	780.344	775.931	1249.1	1229.7	1210.9	1192	1171.8
x1 = 0.8002	787.449	783.513	779.542	775.588	771.559	1253.5	1233.7	1215	1195.9	1176.6
x1 = 0.9065	781.614	777.793	773.938	770.069	766.156	1259.1	1240	1220.6	1201.7	1183.1
x1 = 1	777.006	773.28	769.552	765.811	762.061	1264.2	1245.2	1226.2	1207.4	1188.8

CCCCN(CCCC)CCCC [tributylamine] + CCCOC(C)=O
Settings	mass density, 293.15 K [kg/m3]	mass density, 298.15 K [kg/m3]	mass density, 303.15 K [kg/m3]	mass density, 308.15 K [kg/m3]	mass density, 313.15 K [kg/m3]	speed of sound, 293.15 K [m/s]	speed of sound, 298.15 K [m/s]	speed of sound, 303.15 K [m/s]	speed of sound, 308.15 K [m/s]	speed of sound, 313.15 K [m/s]
x1 = 0.0509	876.475	871.105	865.344	859.857	854.206	1193.8	1167.9	1148.6	1127.2	1105.2
x1 = 0.1204	861.989	856.798	851.275	845.985	840.603	1198.3	1173.2	1154.3	1132.9	1111.2
x1 = 0.2066	846.28	841.395	836.192	831.184	826.095	1205.3	1180.5	1161.6	1140.7	1119.1
x1 = 0.306	831.793	827.121	822.274	817.519	812.694	1212	1188.5	1169.1	1148.2	1127.6
x1 = 0.4043	819.864	815.394	810.785	806.239	801.63	1219.3	1196.3	1177	1156.6	1136
x1 = 0.5015	809.872	805.603	801.221	796.775	792.345	1226.3	1204.6	1185.2	1165.4	1144.9
x1 = 0.6007	801.215	797.082	792.841	788.618	784.342	1233.2	1212.4	1192.9	1172.6	1153.4
x1 = 0.7102	793.047	789.025	784.905	780.824	776.694	1241.2	1221.4	1201.8	1182.1	1162.6
x1 = 0.8007	787.307	783.381	779.377	775.39	771.367	1248.5	1228.5	1209.3	1190	1171.2
x1 = 0.9008	781.809	777.98	774.088	770.204	766.273	1255.7	1236.5	1217.8	1197.9	1179.1
x1 = 1	777.006	773.283	769.552	765.811	762.061	1264.2	1245.2	1226.2	1207.4	1188.8
